In patent publication US6881825B1, “Identication of peptides that facilitate uptake and cytoplasmic and/or nuclear transport of proteins, DNA and virues” (University of Pittsburgh of The Commonwealth System of …, priority 1999, dated 2005):
“Also recorded” adds a separate entry of the source. Where no end group is shown, it is not given here.

Key:
[1] = tested on: Hig-82 cells; experiment: Peptide-β-gal complex internalization, X-gal staining; type: cell-based, rabbit; conditions: for transduction/transfer activity of the peptide (in words): as summarised with CD spectra and competition data; for relative strength of internalization of β-gal (concentration needed): FIG. 1B, various concentrations of peptide linked to β-gal, 1:1=150 nM of β-gal
Procedure: (§1) Internalizing peptides 1-6 (SEQ ID Nos:1-6 respectively), which were identified as described above in Example 3, were synthesized, and biotinylated (synthesis and biotinylation performed by the Biotech Center of the University of Pittsburgh). The biotinylated peptides were then conjugated to avidin β-gal or avidin Cy3 at room temperature for 2 hours.
(§2) The peptide conjugates were then added to cells (Hig-82 cells, rabbit synovial cells, human synovial cells, rabbit synovial lining, human primary airway cells HBE 144, human primary islet cells, murine myoblast cells C2C12, dog kidney epithelial cells MDCK, murine fibroblast cells NIH3T3 and murine tumor cells MCA 205 (human synovial cells and human primary airway cells (HBE144) were isolated from patients from the Presbyterian Hospital, University of Pittsburgh by standard techniques for establishing a primary cell culture; human islet cells were provided by the University of Miami and were isolated by standard techniques for establishing a primary cell culture; C2C12, MDCK, 3T3 and MCA205 cells were purchased from ATTC, Bethesda, Md.; all cells were cultured in DMEM and grown to 100% confluency) and incubated while gently rotating at 37° C. for 3 hours with TBS buffer. The cells were then washed 10 times with TBS buffer and fixed with 4% paraformaldehyde at room temperature for 30 minutes. Cells were then washed 3 times with TBS buffer and stained with 1 mg/ml X-gal (Bochringer Mannheim, Indianapolis) at 37° C. overnight for β-gal-conjugated peptides. Cells which were blue indicated the presence of β-gal in the cells. For Cy3-conjugated peptides, fluorescence of the cells as measured by confocal microscopy indicated the ability of the peptide to internalize the Cy3 (a small molecule cargo).
TAT-PTD (YGRKKRRQRRR; SEQ ID NO:21), and a random control peptide (ARPILEHGSDKAT; SEQ ID NO:20). […] In FIG. 1B, various concentrations of peptides linked to β-gal were tested (1:1=150 nM of β-gal).

[2] = tested on: rabbit synovial lining; experiment: In vivo transfer of peptide-conjugated β-gal after injection into rabbit knee; conditions: for level of uptake of β-gal into rabbit synovial lining: FIG. 4A, injection into rabbit knee, compared with adenoviral vector encoding β-gal
Procedure: Peptide-β-gal complexes (fusions) were injected into rabbit knee synovial lining, the lining as then removed, washed with wash buffer, fixed with 4% paraformaldehyde, and stained with β-gal.
(§3) Peptide 5 (SEQ ID NO:5) was able to facilitate uptake of β-gal in nearly 100% of the synovial cells in vivo (FIG. 4B).

[3] = tested on: rabbit synovial fibroblasts; experiment: Internalization of Cy3-labeled peptide/M13 phage complex; type: cell-based; conditions: FIG. 13D vs control phage
Text: Therefore, the peptides of the present invention are useful for facilitating the internalization of virus and viral vectors.

[4] = tested on: Hig-82 cells; experiment: Peptide competition assay for internalization of peptide-conjugated β-gal; type: cell-based, rabbit; conditions: for blocking of internalization of peptide-conjugated β-gal by non-biotinylated peptide: FIG. 5, conjugates of peptide 2, 3, 4 and 5, 3 hours at 37° C.
Procedure: A peptide competition assay was carried out to determine the relative efficiency and specificity of the various peptides. The peptides were conjugated to β-gal as described above in Example 4 and incubated with Hig-82 cells grown to 85% confluency in 24 well plates in the presence of non biotinylated peptides for 3 hours at 37° C. in TBS buffer while being gently rotated. The cells were then washed 10 times with TBS buffer, fixed with 4% paraformaldehyde at room temperature for 30 minutes, washed 3 times with TBS buffer, and stained with Xgal, as described above in Example 4, overnight. Cells which stained blue had internalized peptide-conjugated β-gal.

[5] = tested on: rabbit synovial cells; experiment: Peptide-β-gal internalization, X-gal staining; type: cell-based; conditions: rabbit (primary) synovial cells; FIG. 2, 6B
Procedure: as §1, §2

[6] = tested on: human synovial cells; experiment: Peptide-β-gal internalization, X-gal staining; type: cell-based; conditions: human (primary) synovial cells; FIG. 3, 6C
Procedure: as §1, §2

[7] = tested on: MCA 205 tumor cells; experiment: Intra-tumoral injection of peptide-β-gal complex, X-gal staining of tumor; type: in vivo, mouse; conditions: day 14 subcutaneous MCA-205 tumors, single intra-tumoral injection
Procedure: as §3
To make the nucleic acid encoding the peptide-eGFP fusion depicted in FIG. 9A, PCR was employed using 5′ and 3′ primers that encoded the peptide and a his tag, respectively, and had complimentary sequences to eGFP DNA coding sequences. […] MCA 205 tumor cells (5×10^5 cells) were injected subcutaneously into the flank of a C57/BL6 mouse. At day 14, a single intra-tumoral injection of the peptide β-gal complex was performed. The mice were sacrificed 3 hours post-injection and the tumor tissue was isolated, sectioned and stained with X-gal.

[8] = tested on: human β islet primary cells; experiment: Peptide-β-gal uptake, X-gal staining; type: cell-based; conditions: FIG. 6F
Procedure: as §2
(§4) FIG. 9A is a schematic representation of the expression construct encoding the peptide5-eGFP fusion protein.

[9] = tested on: MCA205 murine fibrosarcoma cells; experiment: Peptide-β-gal uptake, X-gal staining; type: cell-based; conditions: FIG. 6H
Procedure: as §2, §4

[10] = tested on: C2C12 murine myoblast cells; experiment: Peptide-β-gal uptake, X-gal staining; type: cell-based; conditions: FIG. 6G
Procedure: as §2, §4

[11] = tested on: MDCK polarized canine kidney cells; experiment: Peptide-β-gal uptake, X-gal staining; type: cell-based; conditions: FIG. 6E
Procedure: as §2, §4

[12] = tested on: HBE 144 primary human airway epithelial cells; experiment: Peptide-β-gal uptake, X-gal staining; type: cell-based; conditions: FIG. 6D
Procedure: as §2, §4

[13] = tested on: Hig-82 cells; experiment: Internalization of peptide-streptavidin-488 complex, fluorescence and confocal microscopy; type: cell-based, rabbit
Text: See Bayer et al., Histochem. Cytochem. 24:933-939 (1976); Ivanenkov & Menon, Biochim. Biophys. Acta. 1448:463-472 (1999). The use of the 488 flourescent marker allows for analysis of the treated cells by confocal microscopy to determine the exact location of the complexes in the cells.

[14] = tested on: NIH3T3 cells; experiment: Peptide-β-gal uptake, X-gal staining; type: cell-based, murine; conditions: FIG. 6I
Procedure: as §2, with “Cells which were blue indicated the presence of β-gal in the cells.” left out, “cargo). […]” for “cargo).”

[15] = tested on: HIG82 cells; experiment: Cell viability by MTT assay (OD 570 nm); type: cell-based, rabbit; conditions: HIG-82 cells; 100-3.1 μM peptide, three hours; FIG. 14, 15
Procedure: 2×10^5 cells (HIG82, MCA205 or Jurkatt) were seeded into 24 well plates. Forty-eight hours later, 100 μM, 50 μM, 25 μM, 6.25 μM and 3.1 μM of the either the death peptide (SEQ ID NO:24), peptide 5 alone (SEQ ID NO:5) or the apoptotic peptide alone (SEQ ID NO:23) was added to the cells. To check for cell viability, three hours later, the media was aspirated and 1 ml of scrum-free media containing 0.25 mg of MTT was added to each well and incubated for 4 hours at 37° C. MTT-containing media was then removed and 1 ml of absolute isopropanol containing 0.4N HCl was added. Photographs were taken of the plates, then the cells were harvested and any debris was centrifuged. OD as taken at λ=570 nm. Each sample point was performed in triplicate.

[16] = tested on: CD34+/LIN− stem cells; experiment: Transduction with biotin-peptide/avidin-β-gal complex; type: cell-based; conditions: FIG. 17
Text: Peptide 5 is biotin labeled and the β-gal is avidin labeled so that they may be linked together by an avidin/biotin interaction. The cells which stained dark were transduced with the peptide/β-gal complex as indicated by an arrow.

[17] = tested on: human islets; experiment: Internalization of peptide5-eGFP fusion protein, fluorescence; type: cell-based; conditions: peptide fused to eGFP; FIG. 9B-E
[18] = tested on: human dendritic cells; experiment: as above; type: cell-based; conditions: peptide fused to eGFP; FIG. 9F-G
[19] = tested on: MCA205 tumors; experiment: Growth of MCA205 fibrosarcomas under daily intra-tumoral injection; type: in vivo; conditions: repeated administration
Procedure: To determine whether the death peptide could induce apoptosis in tumor cells and inhibit tumor growth in vivo, C57BL/6 mice bearing day 7 tumors in each […] (seeded with 1×10^5 MCA205 cells) were injected daily for 10 days with a 50 μl volume of 1 mM death peptide (SEQ ID NO:24; DP1) or the apoptotic peptide alone (SEQ ID NO:23; KLA) or a saline mock into both tumors. Five mice were used in each group. Tumor volume was estimated by multiplying maximum length×width^2. Separately, C57BL/6 with single, day 12 tumors were injected with 1 mM death peptide (SEQ ID NO:24; DP1), apoptotic peptide alone (SEQ ID NO:23; KLA) or saline for eleven days. Ten mice comprised each group. On the final day, the mice were injected with the appropriate saline or peptide solution and sacrificed 3 hours post-injection. Tumors were paraffin-embedded, sectioned, and stained for TUNEL and counterstained with methyl green or stained with hematoxylin and eosin to reveal histologic architecture.

[20] = FIG. 12, 100 fold excess of competitor

| Sequence | transduction/transfer activity of the peptide (in words) [1] | level of uptake of β-gal into rabbit synovial lining [2] | internalization of intact M13 phage (and nuclear localization of protein complexes) [3] | blocking of internalization of peptide-conjugated β-gal by non-biotinylated peptide [4] | internalization of β-gal [5] | β-gal staining / internalization in murine tumors in vivo [7] | further results |
| --- | --- | --- | --- | --- | --- | --- | --- |
| ARPILEHGSDKAT (ARPLEHGSDKAT; random peptide library) [reference compound] | does not have activity | no uptake |  |  |  |  |  |
| KRIHPRLTRSIR (random peptide library) [peptide 2] | intermediate activity |  | able to facilitate internalization and nuclear localization of protein complexes as well as intact M13 phage |  |  |  |  |
| KRIIQRILSRNS (random peptide library) [peptide 1] | lower activity |  |  | did not block the internalization by any of the peptides | facilitate the internalization of β-gal into rabbit synovial cells |  | internalization of β-gal [6]: facilitate the internalization of β-gal into human synovial cells |
| MHKRPTTPSRKM (random peptide library) [peptide 6] | only weakly able to transduce cells |  |  |  |  |  | inhibition of uptake of peptide 2 and 3 ([4]; FIG. 12): able to inhibit; transduction/transfer activity of the peptide (in words) ([1]; listed as SEQ ID NO:6): lower activity |
| PIRRRKKLRRLK (random peptide library) [peptide 4] | highly active | highest level of uptake | able to facilitate internalization and nuclear localization of protein complexes as well as intact M13 phage | blocked the internalization of peptide 2 through peptide 6-conjugated β-gal |  |  |  |
| PPRLRKRRQLNM (random peptide library) [peptide 3] | intermediate activity |  | able to facilitate internalization and nuclear localization of protein complexes as well as intact M13 phage |  | facilitate the internalization of β-gal into rabbit synovial cells | facilitate the internalization of β-gal into murine tumor cells in vivo | relative strength of internalization of β-gal (concentration needed) [1]: achieved internalization of β-gal at a slightly higher concentration |
| RQIKIWFQNRRMKWKK (antennepedia) [antennapedia peptide, reference compound] |  |  |  |  |  | facilitate the internalization of β-gal into murine tumor cells in vivo |  |
| RRQRRTSKLMKR (random peptide library) [peptide 5] | highly active | highest level of uptake | detected in the treated cells | blocked the internalization of peptide 2 through peptide 6-conjugated β-gal | facilitate the uptake of β-gal | significant β-gal staining; also recorded: facilitate the internalization of β-gal into murine tumor cells in vivo | inhibition of uptake of TAT-PTD and peptide 5 itself [4, 20]: significantly inhibit; inhibition of uptake of peptides 3, 4 and antennapedia peptide [4, 20]: completely inhibit; uptake of β-gal [8]: facilitate the uptake of β-gal; uptake of β-gal [9]: facilitate the uptake of β-gal; uptake of β-gal [10]: facilitate the uptake of β-gal; uptake of β-gal [11]: facilitate the uptake of β-gal; uptake of β-gal [12]: facilitate the uptake of β-gal; internalization of streptavidin-488 complex ([13]; FIG. 13A, biotinylated peptide coupled to streptavidin-488): efficient internalization; nuclear localization of peptide-streptavidin-488 complex ([13]; FIG. 13B, confocal microscopy): significant percentage of the peptide-streptavidin-488 complex being found in the nucleus; uptake of β-gal [14]: facilitate the uptake of β-gal; cell viability (MTT, OD570) [15]: did not impair viability; relative strength of internalization of β-gal (concentration needed) [1]: effect internalization of β-gal linked thereto at a concentration equal to or less than TAT-PTD; uptake of β-gal ([1]; FIG. 6A, HIG-82 cells): facilitate the uptake of β-gal; transduction of stem cells with β-gal [16]: transduce CD34+/LIN− stem cells; synovial cells with uptake of β-gal in vivo ([2]; FIG. 4B, histology, eosin counter-stain): ~100%; internalization of eGFP [17]: facilitate internalization of eGFP in human islets; internalization of β-gal [6]: facilitate the internalization of β-gal into human synovial cells; also recorded: facilitate the uptake of β-gal; internalization of eGFP [18]: facilitate the internalization of EGFP in human dendritic cells |
| RRQRRTSKLMKRGGKLAKLAKKLAKLAK [death peptide] |  |  |  |  |  |  | side-effects in treated mice [19]: no obvious side-effects |
| YGRKKRRQRRR (human) [TAT-PTD, reference compound] |  | highest level of uptake |  |  |  |  |  |
